{
  "source": "patent US20250032425A1",
  "about": "“FIRST IN CLASS USE OF ESTROGEN RECEPTOR BETA AGONISTS IN TREATING ANGELMAN SYNDROME AND RELEVANT AUTISM SPECTRUM DISORDERS” (BROWN UNIVERSITY, priority 2023, published 2025)",
  "molecules": {"B1": {"name": "BDNF: brain-derived neurotrophic factor, human recombinant; neurotrophin that belongs to NGF-beta family (protein, UniProt P23560 19-247, looked up)", "Neurotrophic factor BDNF …": "APMKEANIRGQGGLAYPGVRTHGTLESVNGPKAGSRGLTSLADTFEHVIEELLDEDQKVRPNEENNKDADLYTSRVMLSSQVPLEPPLLFLLEEYKNYLDAANMSMRVRRHSDPARRGELSVCDSISEWVTAADKKTAVDMSGGTVTVLEKVPVSKGQLKQYFYETKCNPMGYTKEGCRGIDKRHWNSQCRTTQSYVRALTMDSKKRIGWRFIRIDTSCVCTLTIKRGR"}},
  "assay_type_in_all_cases": "cell-based, human",
  "key": {"[1]": {"system": "UBE3A-deficient iOPCs", "assay": "Ki67 (and PCNA) immunoblotting in UBE3A-knockdown iOPCs: compound screen and rescue of proliferation", "details": "for impact of UBE3A loss on OPC proliferation (FIG. 18F, 19G): ERβ activators of different structural classes; for effect of AC-186 to enhance proliferation of iOPCs with UBE3A knockdown (Ki67): MEK inhibitor with AC-186 co-treatment (10 μM, 24 hours); for restoration of Ki67 expression in compound screen: Ki67 immunoblotting normalized to siNC=1.0", "experimental": "Given the scarcity of knowledge regarding UBE3A function in oligodendrocyte biology, a comprehensive exploration of various cellular functions was performed, leveraging the high-throughput capabilities of the iPSC-based methodology (e.g., as described herein). We selected over 45 compounds with known targeted cellular actions (Table 1). These were chosen based on their documented effects on UBE3A, their ability to promote oligodendrocyte development and myelination, or their protective 10 roles in neural tissue. UBE3A expression was modulated using siRNA, achieving a controlled reduction that decreased OPC proliferation by approximately 50%, as evidenced by Ki67 protein levels.\niPSC Culturing and Generation of Induced Human Brain Cells Including Oligodendroglia, Neurons (IN), Astrocytes (iAs) and Microglia (iMG) The generation of iPSC-derived human oligodendrocyte precursor cells (iOPCs) was carried out according to a previously published protocol by Vulakh and Yang et al., 2023 (Characterizing the Neuron-Glial Interactions by the Co-cultures of Human iPSC-Derived Oligodendroglia and Neurons. Methods Mol. Biol. 2683), which itself was a modification of an earlier protocol by Assetta et al., 2020 (Generation of Human Neurons and Oligodendrocytes from Pluripotent Stem Cells for Modeling Neuron-Oligodendrocyte Interactions. J Vis Exp.). The process began with the control iPSCs, which is a well-characterized control reference line acquired from the NIH-funded iPSC Neurodegenerative Disease Initiative (INDI, (Ramos, D. M., Skarnes, W. C., Singleton, A. B., Cookson, M. R., and Ward, M. E. (2021). Tackling neurodegenerative diseases with genomic engineering: A new stem cell initiative from the NIH. Neuron 109, 1080-1083. 10.1016/j.neuron.2021.03.022)), distributed by the Jackson Laboratory. These iPSCs were maintained in mTeSR plus medium (StemCell Technologies, #05825) and expanded in Stem Flex medium (Fisher Scientific. #A3349401) for the induction of neural progenitor cells (INPC). The iNPCs were derived by treating iPSCs with a commercial SMAD inhibitor medium (StemCell Technologies, #08582) for 7 days (Week 1). Subsequently, NPCs were further induced to become OPCs by a 7-day incubation (Week 2) with a chemically-defined OPC medium: DMEM/F12 medium (Thermo Fisher, #11320033) supplemented by 10 ng/ml PDGF-AA (R&D Systems, #221-AA-025), 1 μM SAG (Tocris, #4366), […] N-Acetyl-Cysteine (Millipore Sigma, #A9165-5G), 20 ng/mL bFGF (R&D Systems, #233-FB-025/CF), 1% N2 supplement (Thermo Fisher, #17502048), and 1% B27 supplement (Thermo Fisher, #17504044). […] The additional incubation with OL medium for 7-14 days (Week 4-5) yielded mature, myelinating OLs.\n(§1) The siRNAs targeting UBE3A (Thermo Fisher, #4390815 and #4390816), estrogen receptors (Thermo Scientific #145909 for ESRβ, #145539 for ESRα, and #4390824 for GPER), and negative control (Thermo Scientific, #AM4615) were obtained commercially. The 10-20 nM final concentration was used with Lipofectamine RNAiMAX transfection reagent (Thermo Scientific #13778075) and incubated for at least 48 hours before the treatments of therapeutic compounds or other reagents.\nCells were collected by fast spin down in centrifuge tubes before lysis in RIPA buffer (ThermoFisher, #89901) supplemented with proteinase inhibitor cocktail (Sigma-Aldrich, #5892791001) on ice. Lysates were then spun down at 15000 rpm for 10 mins, the supernatant was collected and mixed with 4× Laemmle sample buffer (Bio-Rad, #1610747) and cooked 10 mins before SDS-PAGE and transferred with Bio-Rad fast transfer system, the membranes were blocked for one hour in 1× Tris Buffered Saline (TBS) with 1% Casein buffer (Bio-Rad, #1610782) and incubated with primary antibodies overnight at 4 degrees. […]"}, "[2]": {"system": "iOPCs expressing Cas9 and a sgRNA targeting UBE3A", "assay": "EdU incorporation in iOPCs with CRISPR/Cas9 UBE3A depletion (Lenti-sgUBE3A #1-3)", "details": "10 μM; any of the sgRNAs", "experimental": "The sgRNAs targeting UBE3A, and negative control were obtained from Applied Biological Materials Inc. Targeting sgRNA sequences against UBE3A are: sgRNA1, […]; sgRNA2, […]; sgRNA3, […]. These sgRNAs were integrated into the backbone of the negative control pLenti-U6-sgRNA-SFFV-Cas9-2A-Puro. All constructs were packaged into lentiviruses and concentrated by Lenti-X Concentrator (Takara Bio #631231). In each experiment, 5-10 μl of concentrated virus was administered into ˜70% confluent iOPCs cultures in 6-well plates. One day post-lentiviral transduction, iOPC cultures were treated with approximately 5 μg/ml Puromycin to isolate those iOPCs which are expressing Cas9/sgRNAs. Following a day of selection, the iOPCs were then seeded on gelatin-coated coverslips placed in 24-well plates at a density of 100,000 cells per well. After another day allowed for cell stabilization, treatment with either the vehicle control (DMSO), AC-186, DPN, or LY500307 commenced at a standard concentration of 10 μM. A final 24-hour period after this treatment saw the cells exposed to […] for three hours, preparing them for subsequent immunofluorescence staining.\nThe EdU labeling kit from ThermoFisher Scientific (#C10637) was used to trace cell proliferation by incubating iOPCs with 2 μM EdU for three hours before fixation. Following EdU incorporation, cells were fixed in 4% paraformaldehyde, blocked with normal serum, and stained with primary antibodies, Rabbit anti-Ki67 and Mouse anti-UBE3A. These steps were conducted according to the manual of the labeling kit and also detailed immunofluorescence staining protocols described below, to ensure specific detection of the proliferation marker Ki67 and the ubiquitin-protein ligase UBE3A in the cells for subsequent imaging analysis."}, "[3]": {"system": "ERK/MAPK signaling pathway", "assay": "ERK/MAPK and S6 activation in iOPCs by immunoblotting (phosphorylated to total ratio)", "details": "MEK inhibitor added to UBE3A-depleted OPCs with AC-186", "description": "FIGS. 20A-20E depict the identification of ESR-β signaling pathway in regulating OPC proliferation impaired by UBE3A depletion. FIG. 20A: Immunofluorescence to track estrogen receptor (ESR) expression in OPCs, by staining of all 3 ESRs, ESR-α, ESR-β and GPER (top panels), in iOPCs co-labeled with UBE3A (middle panels) and DAPI; scale bar, 100 μm. […] FIG. 20B: Immunoblotting to assess OPC expression of individual ESRs, by analyzing protein levels of ESR-α, ESR-β and GPER in iOPCs treated with siNC or siUBE3A, normalized to GAPDH and expressed relative to the siNC condition (set as 1.0). After treatment with siUBE3A, expression of ESR-β was decreased, while expression of GPER was increased. n=5-6 experiments. FIG. 20C: The activation of the ERK/MAPK signaling pathway in OPCs, particularly downstream of ESR-β, was analyzed in iOPCs subjected to 6 knockdown conditions: siNC, siUBE3A, siESRα, siESRβ, and combinations of siUBE3A with siESRα or siESRβ. These were followed by treatment with vehicle control or the ESR-β agonist AC-186 (10 μM, 30 min). The activation of ERK and its substrate S6 was determined by the ratio of phosphorylated to total ERK and S6 levels, adjusted relative to the vehicle control group (standard value of 1.0). ERK phosphorylation and S6 phosphorylation was decreased in cells treated with siESRβ, or siESRβ and siUBE3A combined. n=3 experiments. FIG. 20D: Immunoblotting to evaluate the role of ERK/MAPK activation in the restoration of OPC proliferation following ESR-β activation, with the addition of ERK phosphorylation inhibitors U0126 or PD98059 to UBE3A-depleted OPCs, with or without AC-186 co-treatment (10 μM. 24 hours). The quantification of Ki67 expression and UBE3A levels, being normalized to β-tubulin (TUBB1) and compared to the siNC condition (value of 1.0). n=5 experiments. FIG. 20E: A schematic depicting the regulatory role of ESR-β signaling pathway in OPC proliferation, identified by combining genetic knockdown techniques and pharmacological interventions. Activation of ESR-β selectively triggers the ERK/MAPK pathway, as shown by ERK phosphorylation and the ERK substrate S6 activation, essential for cell proliferation. […] As applicable: statistical significance was determined using One-way ANOVA followed by post-hoc comparisons, with selected comparisons presented. Significance levels marked as *p<0.05. ** p<0.005. *** p<0.001. **** p<0.0001, ns not significant, across relevant comparisons.\nas §1\nCells were collected by fast spin down in centrifuge tubes before lysis in RIPA buffer (ThermoFisher, #89901) supplemented with proteinase inhibitor cocktail (Sigma-Aldrich, #5892791001) on ice. Lysates were then spun down at 15000 rpm for 10 mins, the supernatant was collected and mixed with 4× Laemmle sample buffer (Bio-Rad, #1610747) and cooked 10 mins before SDS-PAGE and transferred with Bio-Rad fast transfer system, the membranes were blocked for one hour in 1× Tris Buffered Saline (TBS) with 1% Casein buffer (Bio-Rad, #1610782) and incubated with primary antibodies overnight at 4 degrees. After 3 times washing in TBST washing buffers (ThermoFisher, #28352), the membranes were incubated with HRP conjugated antibodies and developed with Clarity Max™ Western ECL Substrate (Bio-Rad, #1705062) before being filmed in the iBright imaging system."}, "[4]": {"system": "UBE3A-deficient iOPCs and iOLs", "assay": "Oligodendrocyte differentiation of UBE3A-deficient iOPCs into iOLs (immunoblotting of Ki67, MAG, CNPase)", "details": "UBE3A-deficient iOLs; AC-186 (10 µM), clemastine (2.5 μM); 3 days", "method": "FIG. 25C: Immunoblotting was conducted to assess the impact of UBE3A depletion on ESR-β expression during oligodendrocyte differentiation. Protein levels of ESR-β in UBE3A-deficient iOPCs and subsequently differentiated iOLs were quantified, normalized against the loading control GAPDH, and expressed relative to the iOPC+siNC control condition (set at 1.0). […] Levels of Ki67 and Myelin Associated Glycoprotein (MAG) were measured in UBE3A-deficient iOPCs and iOLs differentiated from them, normalized against GAPDH, and compared to the iOPC+siNC condition. n=4 experiments. FIG. 25E: Immunoblotting to examine the role of UBE3A for OPC self-renewal and oligodendrocyte differentiation across different developmental stages. Expression of maturation and myelination markers (MBP, MAG, PLP1, CNPase) was quantified following UBE3A depletion timed from iOPCs to pre-iOLs, normalized against TUBB1. and compared to the iOPC+siNC control condition (set at 1.0). n=4 experiments."}, "[5]": {"system": "AS iOPCs differentiated into iOLs", "assay": "Differentiation of AS patient-derived iOPCs into iOLs (MAG, CNPase, MBP)", "details": "AC-186 10 μM or clemastine 2.5 μM, 72 hours"}, "[6]": {"details": "siUBE3A cells, 10 μM, 24 hours, normalized to GAPDH"}},
  "note": "“Also recorded” adds a separate entry of the source.",
  "data": [
    {"molecule": "Oc1ccc([C@@H]2Oc3ccc(O)cc3[C@@H]3CCC[C@@H]32)cc1", "note": "[LY500307, reference compound]", "values": [
      {"measurement": "impact of UBE3A loss on OPC proliferation (FIG. 18F, 19G)", "setting": "[1]", "value": "similarly mitigated the impact of UBE3A loss on OPC proliferation"},
      {"measurement": "Ki67 expression (FIG. 19G)", "setting": "[1]; [6]", "value": "increased expression"},
      {"measurement": "PCNA expression (FIG. 19G)", "setting": "[1]; [6]", "value": "increased expression"},
      {"measurement": "number of EdU+ cells", "setting": "[2]", "value": "increased the number of EdU+ cells"}
    ]},
    {"molecule": "O=C1C[C@@H](c2ccc(O)cc2)Oc2cc(O)ccc21", "note": "[Liquiritigenin, reference compound]", "values": [
      {"measurement": "impact of UBE3A loss on OPC proliferation (FIG. 18F, 19G)", "setting": "[1]", "value": "similarly mitigated the impact of UBE3A loss on OPC proliferation"}
    ]},
    {"molecule": "COc1cccc(-c2cc(=O)c3ccccc3o2)c1N", "note": "[PD98059, reference compound]", "values": [
      {"measurement": "effect of AC-186 to enhance proliferation of iOPCs with UBE3A knockdown (Ki67)", "setting": "[1]", "value": "reduced"},
      {"measurement": "ERK/MAPK pathway activation stimulated by AC-186", "setting": "[3]", "value": "inhibited"}
    ]},
    {"molecule": "N#CC(=C(/N)Sc1ccccc1N)/C(C#N)=C(\\N)Sc1ccccc1N", "note": "[U0126, reference compound]", "values": [
      {"measurement": "effect of AC-186 to enhance proliferation of iOPCs with UBE3A knockdown (Ki67)", "setting": "[1]", "value": "reduced"},
      {"measurement": "ERK/MAPK pathway activation stimulated by AC-186", "setting": "[3]", "value": "inhibited"}
    ]},
    {"molecule": "Oc1ccc(-c2nc3cc(O)cc(Br)c3o2)cc1", "note": "[WAY-200070, reference compound]", "values": [
      {"measurement": "impact of UBE3A loss on OPC proliferation (FIG. 18F, 19G)", "setting": "[1]", "value": "similarly mitigated the impact of UBE3A loss on OPC proliferation"}
    ]},
    {"molecule": "CN1CCC[C@@H]1CCO[C@](C)(c1ccccc1)c1ccc(Cl)cc1", "note": "[clemastine, Clemastine, reference compound]", "values": [
      {"measurement": "oligodendrocyte differentiation (MAG), FIG. 25D", "setting": "[4]", "value": "enhanced differentiation"},
      {"measurement": "oligodendrocyte differentiation (MAG, CNPase, MBP)", "setting": "[5]", "value": "positively influenced the differentiation process"}
    ]},
    {"molecule": "FGF: fibroblast growth factor; bFGF, human recombinant", "values": [
      {"measurement": "restoration of Ki67 expression in compound screen", "setting": "[1]; 10 μM, 24 hours", "value": "restored; also recorded: effectively normalized proliferation levels; also recorded: Statistically significant; also recorded: capable of restoring Ki67 expression"}
    ]},
    {"molecule": "B1", "values": [
      {"measurement": "restoration of Ki67 expression in compound screen", "setting": "[1]; 10 μM, 24 hours", "value": "restored; also recorded: effectively normalized proliferation levels; also recorded: Statistically significant; also recorded: capable of restoring Ki67 expression"}
    ]}
  ]
}
